Experimental data as given in patent US20260317320A1, “C5AR1 ANTAGONISTS AND USES THEREOF” (Vanqua Bio, Inc., priority 2022, published 2026).

Assays:
[1] = target: T1, complement C5a receptor 1 (C5aR1) (Homo sapiens, UniProt P21730); test: β-arrestin recruitment via C5aR1 activation in live CHO-K1 cells (PathHunter), antagonist mode; format: cell-based; conditions: antagonist mode; recombinant hC5a (EC90) as competing natural agonist; live CHO-K1 cells; read-out: [Antagonist] B-arrestin2 recruitment: Average IC50
T1 construct: β-galactosidase fragment (PathHunter enzyme complementation); host or cells: CHO-K1 (PathHunter CHO-K1 C5aR1 β-arrestin cell line)
T1 sequence (P21730 1-350): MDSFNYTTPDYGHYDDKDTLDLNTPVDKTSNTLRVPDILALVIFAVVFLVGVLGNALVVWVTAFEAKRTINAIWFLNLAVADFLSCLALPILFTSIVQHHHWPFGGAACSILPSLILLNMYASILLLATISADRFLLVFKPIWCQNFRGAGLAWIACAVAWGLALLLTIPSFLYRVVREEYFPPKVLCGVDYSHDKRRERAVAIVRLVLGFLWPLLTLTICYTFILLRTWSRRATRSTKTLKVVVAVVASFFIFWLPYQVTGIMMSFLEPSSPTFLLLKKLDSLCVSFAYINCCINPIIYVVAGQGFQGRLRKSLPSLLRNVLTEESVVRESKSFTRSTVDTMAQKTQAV
In short: (§1)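 β-arrestin recruitment to C5aR1 in CHO-K1 cells is detected by enzyme-fragment complementation. Antagonism is measured against recombinant hC5a at its EC90; agonism is measured with compound alone. Potencies are grouped into IC50 categories.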

[2] = target: T1, complement C5a receptor 1 (C5aR1); test: β-arrestin recruitment via C5aR1 activation in live CHO-K1 cells (PathHunter), agonist mode; format: cell-based
In short: as §1

SMILES | IC50 [1] | [Agonist] B-arrestin2 recruitment: Average EC50 (nM) [2]
Cc1cnc2cc(N3CCN(c4cc(F)cnc4C)CC3)c(=O)n(Cc3nccnc3C(F)(F)F)c2n1 [compound 59, 7-(4-(5-Fluoro-2-methylpyridin-3-yl)piperazin-1-yl)-3-methyl-5-((3-(trifluoromethyl)pyrazin-2-yl)methyl)pyrido[2,3-b]pyrazin-6(5H)-one] | > 100000 nM | Non-Active
O=c1c(C2CCN(c3cnccc3C(F)(F)F)CC2)cc2nccnc2n1Cc1ncccc1C(F)(F)F [compound 60, 5-((3-(trifluoromethyl)pyridin-2-yl)methyl)-7-(1-(4-(trifluoromethyl)pyridin-3-yl)piperidin-4-yl)pyrido[2,3-b]pyrazin-6(5H)-one] | < 500 nM | Non-Active
Cc1ccnc(F)c1N1CCC(c2c(C)c3nccnc3n(Cc3ncccc3C(F)(F)F)c2=O)CC1 [compound 62, 7-(1-(2-Fluoro-4-methylpyridin-3-yl)piperidin-4-yl)-8-methyl-5-((3-(trifluoromethyl)pyridin-2-yl)methyl)pyrido[2,3-b]pyrazin-6(5H)-one] | 500 to 5000 nM | Non-Active
Cc1cnc2c(C)c(C3CCN(c4c(C)ccnc4F)CC3)c(=O)n(Cc3nccnc3C(F)(F)F)c2n1 [compound 63, 7-(1-(2-Fluoro-4-methylpyridin-3-yl)piperidin-4-yl)-3,8-dimethyl-5-((3-(trifluoromethyl)pyrazin-2-yl)methyl)pyrido[2,3-b]pyrazin-6(5H)-one] | 500 to 5000 nM | Non-Active
O=c1c(C2CCN(c3ccccc3C(F)(F)F)CC2)cc2nccnc2n1Cc1nccnc1C(F)(F)F [compound 64, 7-(1-(2-(Trifluoromethyl)phenyl)piperidin-4-yl)-5-((3-(trifluoromethyl)pyrazin-2-yl)methyl)pyrido[2,3-b]pyrazin-6(5H)-one] | 500 to 5000 nM | Non-Active
COc1cnc2c(cc(C3CCN(c4c(C)cccc4F)CC3)c(=O)n2Cc2ncccc2C(F)(F)F)n1 [compound 65, 7-(1-(2-Fluoro-6-methylphenyl)piperidin-4-yl)-2-methoxy-5-((3-(trifluoromethyl)pyridin-2-yl)methyl)pyrido[2,3-b]pyrazin-6(5H)-one] | 500 to 5000 nM | Non-Active
Cc1cnc2cc(C3CCN(c4c(C)cccc4F)CC3)c(=O)n(Cc3ncccc3OC(F)F)c2n1 [compound 66, 5-((3-(Difluoromethoxy)pyridin-2-yl)methyl)-7-(1-(2-fluoro-6-methylphenyl)piperidin-4-yl)-3-methylpyrido[2,3-b]pyrazin-6(5H)-one] | < 500 nM | Non-Active
Cc1cnc2cc(N3CCN(c4c(C)cccc4F)CC3)c(=O)n(Cc3ncccc3C(F)(F)F)c2n1 [compound 67, 7-(4-(2-Fluoro-6-methylphenyl)piperazin-1-yl)-3-methyl-5-((3-(trifluoromethyl)pyridin-2-yl)methyl)pyrido[2,3-b]pyrazin-6(5H)-one] | < 500 nM | Non-Active
Cc1cnc2cc(C3CCN(c4c(C)cccc4F)CC3)c(=O)n(Cc3ncccc3OC(F)(F)F)c2n1 [compound 68, 7-(1-(2-Fluoro-6-methylphenyl)piperidin-4-yl)-3-methyl-5-((3-(trifluoromethoxy)pyridin-2-yl)methyl)pyrido[2,3-b]pyrazin-6(5H)-one] | < 500 nM | Non-Active
Cc1cnc2cc(N3CCN(c4cc(F)cnc4C)CC3)c(=O)n(Cc3ncccc3C(F)(F)F)c2n1 [compound 69, 7-(4-(5-Fluoro-2-methylpyridin-3-yl)piperazin-1-yl)-3-methyl-5-((3-(trifluoromethyl)pyridin-2-yl)methyl)pyrido[2,3-b]pyrazin-6(5H)-one] | > 100000 nM | Non-Active
O=c1c(C2CCN(c3cnccc3C(F)(F)F)CC2)cc2nccnc2n1Cc1nccnc1C(F)(F)F [compound 70, 5-((3-(Trifluoromethyl)pyrazin-2-yl)methyl)-7-(1-(4-(trifluoromethyl)pyridin-3-yl)piperidin-4-yl)pyrido[2,3-b]pyrazin-6(5H)-one] | 500 to 5000 nM | Non-Active
O=c1c(C2CCN(c3cnccc3Cl)CC2)cc2nccnc2n1Cc1ncccc1C(F)(F)F [compound 71, 7-(1-(4-Chloropyridin-3-yl)piperidin-4-yl)-5-((3-(trifluoromethyl)pyridin-2-yl)methyl)-pyrido[2,3-b]pyrazin-6(5H)-one] | 500 to 5000 nM | Non-Active
O=c1c(C2CCN(c3cccnc3F)CC2)cc2nccnc2n1Cc1ncccc1C(F)(F)F [compound 72, 7-(1-(2-Fluoropyridin-3-yl)piperidin-4-yl)-5-((3-(trifluoromethyl)pyridin-2-yl)methyl) pyrido[2,3-b]pyrazin-6(5H)-one] | > 100000 nM | Non-Active
Cc1cnc2c(C)c(C3CCN(c4c(C)cccc4F)CC3)c(=O)n(Cc3nccnc3C(F)(F)F)c2n1 [compound 73, 7-(1-(2-Fluoro-6-methylphenyl)piperidin-4-yl)-3,8-dimethyl-5-((3-(trifluoromethyl)pyrazin-2-yl)methyl)pyrido[2,3-b]pyrazin-6(5H)-one] | 500 to 5000 nM | Non-Active
Cc1c(C2CCN(c3cnccc3C(F)(F)F)CC2)c(=O)n(Cc2ncccc2F)c2nccnc12 [compound 86, 5-((3-Fluoropyridin-2-yl)methyl)-8-methyl-7-(1-(4-(trifluoromethyl)pyridin-3-yl)piperidin-4-yl)pyrido[2,3-b]pyrazin-6(5H)-one] | 500 to 5000 nM | Non-Active
Cc1cccc(F)c1N1CCC(c2cc3nccnc3n(Cc3ncccc3OC(F)(F)F)c2=O)CC1 [compound 87, 7-(1-(2-Fluoro-6-methylphenyl)piperidin-4-yl)-5-((3-(trifluoromethoxy)pyridin-2-yl)methyl)pyrido[2,3-b]pyrazin-6(5H)-one] | < 500 nM | Non-Active
Cc1cccc(F)c1N1CCN(c2c(C)c3nccnc3n(Cc3ncccc3C(F)(F)F)c2=O)CC1 [compound 88, 7-(4-(2-Fluoro-6-methylphenyl)piperazin-1-yl)-8-methyl-5-((3-(trifluoromethyl)pyridin-2-yl)methyl)pyrido[2,3-b]pyrazin-6(5H)-one] | < 500 nM | Non-Active
Cc1cccc(F)c1C1CCN(c2cc3nccnc3n(Cc3nccnc3C(F)(F)F)c2=O)CC1 [compound 89, 7-(4-(2-Fluoro-6-methylphenyl)piperidin-1-yl)-5-((3-(trifluoromethyl)pyrazin-2-yl)methyl) pyrido[2,3-b]pyrazin-6(5H)-one] | 5000 to 100000 nM | Non-Active
Cc1cnc2c(C)c(N3CCN(c4c(C)cccc4F)CC3)c(=O)n(Cc3ncccc3C(F)(F)F)c2n1 [compound 118, 7-(4-(2-fluoro-6-methylphenyl)piperazin-1-yl)-3,8-dimethyl-5-((3-(trifluoromethyl)pyridin-2-yl)methyl)pyrido[2,3-b]pyrazin-6(5H)-one] | 500 to 5000 nM | Non-Active
Cc1cnc2cc(C3CCN(c4c(C)cccc4F)CC3)c(=O)n(Cc3nccnc3C(F)F)c2n1 [compound 120, 5-((3-(Difluoromethyl)pyrazin-2-yl)methyl)-7-(1-(2-fluoro-6-methylphenyl)piperidin-4-yl)-3-methylpyrido[2,3-b]pyrazin-6(5H)-one] | < 500 nM | Non-Active
Cc1cccc(F)c1N1CCN(c2cc3nccnc3n(Cc3ncccc3OC(F)(F)F)c2=O)CC1 [compound 123, 7-(4-(2-Fluoro-6-methylphenyl)piperazin-1-yl)-5-((3-(trifluoromethoxy)pyridin-2-yl)methyl)pyrido[2,3-b]pyrazin-6(5H)-one] | < 500 nM | Non-Active
Cc1cnc2cc(N3CCN(c4c(C)cccc4F)CC3)c(=O)n(Cc3ncccc3OC(F)(F)F)c2n1 [compound 124, 7-(4-(2-Fluoro-6-methylphenyl)piperazin-1-yl)-3-methyl-5-((3-(trifluoromethoxy)pyridin-2-yl)methyl)pyrido[2,3-b]pyrazin-6(5H)-one] | < 500 nM | Non-Active
COc1nccnc1Cn1c(=O)c(N2CCN(c3c(C)cccc3F)CC2)cc2ncc(C)nc21 [compound 125, 7-(4-(2-Fluoro-6-methylphenyl)piperazin-1-yl)-5-((3-methoxypyrazin-2-yl)methyl)-3-methylpyrido[2,3-b]pyrazin-6(5H)-one] | 500 to 5000 nM | Non-Active
Cc1nccnc1Cn1c(=O)c(C2CCN(c3c(F)cccc3C(F)(F)F)CC2)cc2nccnc21 [compound 126, 7-(1-(2-Fluoro-6-(trifluoromethyl)phenyl)piperidin-4-yl)-5-((3-methylpyrazin-2-yl)methyl)pyrido[2,3-b]pyrazin-6(5H)-one] | 500 to 5000 nM | Non-Active
